Results from patent US20100093678A1, “Compositions and methods of the treatment of obesity and osteoporosis” (THE UNIVERSITY OF GEORGIA RESEARCH FOUNDATION, INC, priority 2008, published 2010).
Several values for one entry are separate records, joined by “and”; a condition that tells them apart may be missing. Equal entries are not always repeated.

Tests used:
C/EBPα = experiment: Western blot, C/EBPα expression in maturing 3T3-L1 preadipocytes; type: cell-based, mouse; details: 0.5 nM 1,25(OH)2D3, 3.12 μM GS, alone or combined; days 0-6; vs control
Protocol: (§1) The protein concentration was determined by BCA assay with bovine serum albumin as the standard. Western blot analysis was performed using the commercial NUPAGE system (Novex/Invitrogen), in which a lithium dodecyl sulfate sample buffer (Tris/glycerol buffer, pH 8.5) was mixed with fresh dithiothreitol and added to samples.
(§2) Measurement of signal intensity on PVDF membranes after Western blotting with various antibodies was performed using a Fluor Chem densitomer with the Alpha-EaseFC image processing and analysis software (Alpha Innotech Corp.). For statistical analysis, all data were expressed as integrated density values (IDV), which were calculated as the density values of the specific protein bands/b-actin density values and expressed as percentage of the control. All figures showing quantitative analysis include data from at least three independent experiments.

FXR = experiment: Western blot, FXR expression in maturing 3T3-L1 preadipocytes; type: cell-based, mouse; details: for increase in FXR levels: 3.12 μM GS
Protocol: as §1, §2

aP2 = experiment: Western blot, aP2 expression in maturing 3T3-L1 preadipocytes; type: cell-based, mouse; details: 0.5 nM 1,25(OH)2D3, 3.12 μM GS, alone or combined; days 0-6; vs control
Protocol: as §1, §2

PPARγ = experiment: Western blot, PPARγ expression in maturing 3T3-L1 preadipocytes; type: cell-based, mouse; details: 0.5 nM 1,25(OH)2D3, 3.12 μM GS, alone or combined; days 0-6; vs control
Protocol: as §1, §2

[1] = system: human mesenchymal stem cells (hMSC); experiment: Osteogenic differentiation of hMSC (ALP activity, calcium deposition, Alizarin red S); type: cell-based; details: for alp activity: FIG. 8D, osteogenic conditions; for osteogenesis: hMSC cultured under osteogenic conditions; for increased calcium deposition: pretreatment, day 17, XN 5 μM, cGS varying doses
Protocol: Alkaline phosphatase activity (ALP/protein) was measured on day 8. Means that are not denoted with a common letter are different (p<0.001).
(§3) In these further examples, post confluent hMSC were treated with varying doses of cGS or XN in adipogenic induction medium, and lipid deposition and cell viability were measured. Alternatively, pre-confluent hMSC were pre-treated with varying doses of cGS or XN for 3 days prior to addition of osteogenic induction medium. Alkaline phosphatase (ALP) activity was determined 3 days post-induction and indices of mineralization (calcium deposition and Alizarin red S stain) were determined 14-28 days post-induction. […] Inhibition was dose-dependent with ˜50% inhibition observed with 6.5 μM cGS and 0.75 μM XN, respectively. Pretreatment with cGS stimulated osteogenic differentiation in hMSC cultures as indicated by increased ALP activity at day 3 (˜10%; P<0.05) and calcium deposition at day 17 (˜35-60%; P<0.05). Pretreatment with 5 μM XN increased calcium deposition (33%; P<0.05) at day 17.

[2] = system: maturing 3T3-L1 preadipocytes; experiment: Apoptosis assay (ApoStrand ssDNA ELISA) in maturing preadipocytes; type: cell-based, mouse; details: 0.5 nM 1,25(OH)2D3, 3.12 μM GS, alone or combined
Protocol: (§4) 3T3-L1 mouse embryo fibroblasts were obtained from American Type Culture Collection (Manassas, Va.) and were cultured as described elsewhere. Briefly, cells were cultured in DMEM containing 10% bovine calf serum until confluent. Two days after confluence, the cells were stimulated to differentiate with DMEM containing 10% fetal bovine serum (FBS), 167 nM insulin, […], and 1 μM dexamethasone for 2 days. On day 2, differentiation medium was replaced with 10% FBS/DMEM containing 167 nM insulin and incubated for 2 days, followed by culturing with 10% FBS/DMEM for an additional 4 days, at which time >90% of cells were mature adipocytes with accumulated fat droplets. All media contained 1% penicillin streptomycin (10,000 U/ml) and 1% (v/v) 100 mM pyruvate. Cells were maintained at 37° C. in a humidified 5% CO2 atmosphere.
Apoptosis assay. For measuring the extent of apoptosis, the ApoStrand ELISA Apoptosis Detection Kit (Biomol, Plymouth Meeting, Pa.) was used. Cells were grown in 96-well plates and incubated with either vehicle or test reagents for the indicated time periods. Cells were then fixed and assayed as per the manufacturer's instructions. The assay selectively detects single-stranded DNA, which occurs in apoptotic cells but not in necrotic cells or cells with DNA breaks in the absence of apoptosis.

[3] = system: maturing 3T3-L1 preadipocytes; experiment: Quantification of lipid content (AdipoRed/Nile Red) in maturing preadipocytes; type: cell-based, mouse; details: 0.5 nM 1,25(OH)2D3 (D0.5), 3.12 μM GS (GS3.12), alone or combined; treated during adipogenic phase, measured day 6
Protocol: as §4
Lipid content was quantified using commercially available AdipoRed™ Assay Reagent. In brief, maturing adipocytes grown in 96-well plates were incubated with vehicle or test compounds during the adipogenic phase and on day 6, culture supernatant was removed and lipid content was quantified by performing AdipoRed™ assay as per the manufacturer's instructions. Treated cells were also stained with Oil Red O and hematoxylin as described by Suryawan and Hu to visualize the lipid content. […]

[4] = system: human mesenchymal stem cells (hMSC); experiment: Cell viability in hMSC adipogenic cultures; type: cell-based; details: adipogenic conditions; varying doses of cGS; XN 1.5-12 μM
Protocol: (§5) In these further examples, post confluent hMSC were treated with varying doses of cGS or XN in adipogenic induction medium, and lipid deposition and cell viability were measured. Alternatively, pre-confluent hMSC were pre-treated with varying doses of cGS or XN for 3 days prior to addition of osteogenic induction medium. Alkaline phosphatase (ALP) activity was determined 3 days post-induction and indices of mineralization (calcium deposition and Alizarin red S stain) were determined 14-28 days post-induction. […] P<0.05). Pretreatment with 5 μM XN increased calcium deposition (33%; P<0.05) at day 17.

VDR = experiment: Western blot, VDR expression in maturing 3T3-L1 preadipocytes; type: cell-based, mouse; details: any time point (day 1, 4, 6); 3.12 μM GS
Protocol: as §1, §2

PPARs = details: reference [20]; cited from earlier work
[5] = system: maturing 3T3-L1 preadipocytes; experiment: Cell viability assay (CellTiter 96) in maturing preadipocytes; type: cell-based, mouse; details: 0.5 nM 1,25(OH)2D3, 3.12 μM GS, alone or combined; 6 days during adipogenesis
Protocol: as §4
Tests were performed in 96-well plates. Two day postconfluent preadipocytes were treated with differentiation medium containing either vehicle or test compounds for 6 days during adipogenesis. On day 6 the treatment medium was removed and the cell viability assay was performed as per the manufacturer's instructions. The absorbance was measured at 490 nm in a plate reader (μQuant Bio-Tek Instruments, Winooski, Vt.) to determine the formazan concentration, which is proportional to the number of live cells.

[6] = system: human mesenchymal stem cells (hMSC); experiment: Cell viability in hMSC osteogenic cultures; type: cell-based; details: osteogenic conditions; varying doses of cGS; XN 20 μM
Protocol: as §5

[7] = system: human mesenchymal stem cells (hMSC); experiment: Lipid deposition / adipogenesis in hMSC under adipogenic conditions; type: cell-based; details: for adipogenesis (lipid accumulation): hMSC cultured under adipogenic conditions
Protocol: Cells were cultured in adipogenic induction medium and treated with control or the combination of R+Q+G (15 μM each). After 18 days adipogenesis was measured and expressed as % control. […] Means that are not denoted with a common letter are different p<0.05.
as §3

| Compound | decrease in expression of C/EBPα (C/EBPα) | decrease in expression of aP2 (aP2) | decrease in expression of PPARγ (PPARγ) | alp activity [1] | increase in apoptosis [2] | decrease in lipid accumulation [3] | cell number (viability) [4] | cell number (viability) [6] | osteogenesis [1] | increased calcium deposition [1] | adipogenesis (lipid accumulation) [7] | also measured |
| --- | --- | --- | --- | --- | --- | --- | --- | --- | --- | --- | --- | --- |
| C=C1/C(=C\C=C2/CCC[C@]3(C)[C@@H]([C@H](C)CCCC(C)(C)O)CC[C@@H]23)C[C@@H](O)C[C@@H]1O [1,25(OH)2D3, 1,25-dihydroxy vitamin D3, reference compound] | 46.3±3.4% and 46% | 27.2±4.8% | 46.2±4.4% and 46% | significantly increased alp activity | 18.4±2.3% | 29.3±3.4% |  |  |  |  |  | effect on FXR levels (FXR; any time point, 0.5 nM 1,25(OH)2D3): no effect |
| C/C=C1\C(=O)C[C@H]2[C@@H]3CCC4=CC(=O)CC[C@]4(C)[C@H]3CC[C@]12C [GS, cis-Guggulsterone] | did not significantly alter | did not significantly alter | did not significantly alter |  | did not have any significant effect | 29.7±2.7% | dose-dependent increase | dose-dependent increase | promoted osteogenesis | 35-60% | reduced adipogenesis | effect on VDR expression (VDR): did not significantly alter; interaction with PPARs (PPARs): did not interact; decrease in cell viability [5]: did not have any significant effect; effect on FXR expression (FXR; day 1, 3.12 μM GS alone or with 0.5 nM 1,25(OH)2D3): did not have any significant effect; increase in FXR levels (FXR; day 4): 30.6±9.3%; increase in FXR levels (FXR; day 6): 64.8±10%; increased ALP activity ([1]; pretreatment 3 days before osteogenic induction, day 3 post-induction): ~10%; inhibition of lipid deposition ([7]; 6.5 μM cGS, 0.75 μM XN, adipogenic conditions): ~50% |
| COc1cc(O)c(CC=C(C)C)c(O)c1C(=O)/C=C/c1ccc(O)cc1 [XN, xanthohumol] |  |  |  |  |  |  | increased cell viability dose-dependently | decreased viability | promoted osteogenesis | 33% | reduced adipogenesis | inhibition at 0.75 µM ([7]; Homo sapiens, Mesenchymal stem cells, 6.5 μM cGS, 0.75 μM XN, adipogenic conditions): ~50% |
| O=c1c(-c2ccc(O)cc2)coc2cc(O)cc(O)c12 [genistein, 5,7-Dihydroxy-3-(4-hydroxyphenyl)chromen-4-one] |  |  |  | significantly increased alp activity |  |  |  |  | promoted osteogenesis |  |  |  |
| O=c1c(O)c(-c2ccc(O)c(O)c2)oc2cc(O)cc(O)c12 [quercetin, 2-(3,4-dihydroxyphenyl)-3,5,7-trihydroxy-4H-chromen-4-one] |  |  |  |  |  |  |  |  | promoted osteogenesis |  | reduced adipogenesis |  |
| vitamin D [reference compound] |  |  |  |  |  |  |  |  | promoted osteogenesis |  |  |  |
